{
  "source": "EPA's ToxValDB 9.5 (doi:10.2903/j.efsa.2018.5130)",
  "key": {"Aphidius rhopalosiphi": {"system": "Aphidius rhopalosiphi", "experiment": "LR50; higher = less toxic", "conditions": "acute; mortality"}, "Phasianus sp.": {"system": "Phasianus sp.", "conditions": "acute; duration: 14 days; oral; unspecified; mortality"}, "Pleurozium sp.": {"system": "Pleurozium sp.", "conditions": "acute; duration: 72 hours; growth"}, "Apis mellifera": {"system": "Apis mellifera", "conditions": "acute, mortality"}, "Bibionidae": {"system": "Bibionidae", "conditions": "chronic/long-term; duration: 28 days; development"}, "Mus musculus": {"system": "Mus musculus", "conditions": "acute, oral, mortality"}, "Neomysis kadiakensis": {"system": "Neomysis kadiakensis", "conditions": "acute; duration: 96 hours; mortality"}, "Rattus norvegicus": {"system": "Rattus norvegicus", "conditions": "developmental; development"}, "Folsomia candida": {"system": "Folsomia candida", "conditions": "chronic/long-term; duration: 28 days; reproduction"}, "Tagia sp.": {"system": "Tagia sp.", "conditions": "chronic/long-term; growth"}, "Daphnia magna": {"system": "Daphnia magna", "conditions": "chronic/long-term; duration: 21 days; reproduction"}},
  "data": [
    {"smiles": "COP(=S)(OC)Oc1c(Cl)cc(C)cc1Cl", "note": "[Tolclofos-methyl]", "values": [
      {"measurement": "LR50", "setting": "Aphidius rhopalosiphi", "result": 43.7, "unit": "g/ha"},
      {"measurement": "NOAEL", "setting": "Anas platyrhynchos; reproductive, duration: 19 weeks", "result": 77, "unit": "mg/kg-day"},
      {"measurement": "LD50", "setting": "Anas platyrhynchos; short-term, duration: 8 days, oral, feed, mortality", "result": "> 1620", "unit": "mg/kg-day"},
      {"measurement": "LD50", "setting": "Phasianus sp.", "result": "> 5000", "unit": "mg/kg-day"},
      {"measurement": "LC50", "setting": "Oncorhynchus mykiss; acute, duration: 96 hours, mortality", "result": 0.69, "unit": "µg/mL"},
      {"measurement": "NOEC", "setting": "Oncorhynchus mykiss; chronic/long-term, growth", "result": 0.012, "unit": "mg/L"},
      {"measurement": "NOEC", "setting": "Pleurozium sp.", "result": 0.14, "unit": "mg/L"},
      {"measurement": "LD50", "setting": "Apis mellifera; duration: 48 hours, oral, unspecified", "result": "> 264", "unit": "µg/piece"},
      {"measurement": "LD50", "setting": "Apis mellifera; duration: 72 hours, dermal", "result": 456, "unit": "µg/piece"},
      {"measurement": "NOEC", "setting": "Bibionidae", "result": 0.25, "unit": "mg/L"},
      {"measurement": "LD50", "setting": "Mus musculus; F", "result": 3600, "unit": "mg/kg-day"},
      {"measurement": "LD50", "setting": "Mus musculus; M", "result": 3500, "unit": "mg/kg-day"},
      {"measurement": "LC50", "setting": "Neomysis kadiakensis", "result": 0.089, "unit": "µg/mL"},
      {"measurement": "NOAEL", "setting": "Rattus norvegicus", "result": 70.6, "unit": "mg/kg-day"},
      {"measurement": "NOEC", "setting": "Folsomia candida", "result": 11, "unit": "mg/kg"},
      {"measurement": "NOEC", "setting": "Tagia sp.", "result": 60, "unit": "mg/kg"},
      {"measurement": "NOEC", "setting": "Daphnia magna", "result": 0.026, "unit": "mg/L"}
    ]}
  ]
}
